According to patent US10975119B2, “Selective cysteine protease inhibitors and uses thereof” (Genesis Technologies Limited, priority 2011, dated 2021):
Entries after “also recorded” stand apart in the source; their conditions may differ. Read-outs that look alike come from different tables or passages of the source.

How the values were obtained:
Assay type in all cases: biochemical
Caspase-2 = molecular target: T1, Caspase-2 (Homo sapiens, UniProt P42575); assay: Caspase-2 inhibitor screening assay (BioVision kit, VDVAD-AFC); settings: for inhibition at 10 µM: read-out: % Inhibition at 10 uM Casp2; for inhibition at 100 µM: read-out: % Inhibition at 100 uM Casp2; for IC50: read-out: IC50 Casp2
T1 construct: mixing the compounds with the respective active caspases; purchased BioVision K152-100
T1 sequence (P42575 170-325 limits assumed): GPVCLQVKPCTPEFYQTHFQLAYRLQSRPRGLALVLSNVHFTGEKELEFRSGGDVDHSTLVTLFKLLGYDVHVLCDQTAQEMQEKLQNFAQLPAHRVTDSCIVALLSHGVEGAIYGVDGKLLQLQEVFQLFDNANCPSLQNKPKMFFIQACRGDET
T1 sequence (P42575 334-452 limits assumed): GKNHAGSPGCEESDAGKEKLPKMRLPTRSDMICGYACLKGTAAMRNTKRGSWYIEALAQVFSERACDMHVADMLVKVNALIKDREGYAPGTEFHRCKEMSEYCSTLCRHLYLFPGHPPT
Experimental: (§1) The efficacy of an array of compounds as an inhibitor of the activity of Caspases 1 through 10 were assessed by using the respective Caspase Inhibitor Drug Screening Kits (Caspase-1 Catalog #: K151-100, Caspase-2 Catalog #: K152-100, Caspase-3 Catalog #: K153-100, Caspase-4 Catalog #: K154-100, Caspase-5 Catalog #: K155-100, Caspase-6 Catalog #: K156-100, Caspase-7 Catalog #: K157-100, Caspase-8 Catalog #: K158-100, Caspase-9 Catalog #: K159-100, Caspase-10 Catalog #: K160-100, BioVision) following the instructions of the manufacturer. […] Active caspases cleaved their respective synthetic substrates to release free AFC, which was then quantified by fluorometry.
(§2) Briefly, the compounds were first tested at 2 concentrations (10 uM and 100 uM final) to determine if there is a hit. […] Each condition was tested in duplicates. […] For some samples, a smaller range of concentrations was tested depending on the % Inhibition results at 10 uM and 100 uM. Results were summarized in Tables 2, 3, and 4 herein after. Table 2 represents the IC50 values (uM) of the test compounds as inhibitors of the activity of the various caspases.
(§3) (*) RFU (no inhibitor control)—RFU (compound at a specific concentration)
(§4) RFU (no inhibitor control)

Caspase-1 = molecular target: T2, Caspase-1 (Homo sapiens, UniProt P29466); assay: Caspase-1 inhibitor screening assay (BioVision kit, YVAD-AFC); settings: for inhibition at 10 µM: read-out: % Inhibition at 10 uM Casp1; for inhibition at 100 µM: read-out: % Inhibition at 100 uM Casp1
T2 construct: mixing the compounds with the respective active caspases; purchased BioVision K151-100
T2 sequence (P29466 120-297 limits assumed): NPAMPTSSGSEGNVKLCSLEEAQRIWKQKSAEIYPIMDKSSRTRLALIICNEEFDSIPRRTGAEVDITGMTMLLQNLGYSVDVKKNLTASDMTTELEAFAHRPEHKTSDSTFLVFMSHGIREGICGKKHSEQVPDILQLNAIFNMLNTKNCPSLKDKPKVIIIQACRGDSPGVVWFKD
T2 sequence (P29466 317-404 limits assumed): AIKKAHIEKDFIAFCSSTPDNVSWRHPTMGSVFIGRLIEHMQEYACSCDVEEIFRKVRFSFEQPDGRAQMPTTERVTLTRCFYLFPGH
Experimental: as §1, §2, §3, §4

Caspase-10 = molecular target: T3, Caspase-10 (Homo sapiens, UniProt Q92851); assay: Caspase-10 inhibitor screening assay (BioVision kit, AEVD-AFC); settings: for inhibition at 10 µM: read-out: % Inhibition at 10 uM Casp10; for inhibition at 100 µM: read-out: % Inhibition at 100 uM Casp10; for IC50: read-out: IC50 Casp10
T3 construct: mixing the compounds with the respective active caspases; purchased BioVision K160-100
T3 sequence (Q92851 220-415 limits assumed): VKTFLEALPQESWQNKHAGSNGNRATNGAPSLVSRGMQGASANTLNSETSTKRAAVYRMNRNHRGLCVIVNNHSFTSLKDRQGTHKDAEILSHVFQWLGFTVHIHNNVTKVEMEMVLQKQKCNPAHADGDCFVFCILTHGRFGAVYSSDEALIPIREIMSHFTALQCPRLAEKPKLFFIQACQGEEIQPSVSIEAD
T3 sequence (Q92851 416-521 limits assumed): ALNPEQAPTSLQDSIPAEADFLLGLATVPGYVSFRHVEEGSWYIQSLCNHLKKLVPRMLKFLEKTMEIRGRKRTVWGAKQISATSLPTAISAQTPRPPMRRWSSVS
Experimental: as §1, §2, §3, §4

Caspase-8 = molecular target: T4, Caspase-8 (Homo sapiens, UniProt Q14790); assay: Caspase-8 inhibitor screening assay (BioVision kit, IETD-AFC); settings: for inhibition at 10 µM: read-out: % Inhibition at 10 uM Casp8; for inhibition at 100 µM: read-out: % Inhibition at 100 uM Casp8; for IC50: read-out: IC50 Casp8
T4 construct: mixing the compounds with the respective active caspases; purchased BioVision K158-100
T4 sequence (Q14790 217-374 limits assumed): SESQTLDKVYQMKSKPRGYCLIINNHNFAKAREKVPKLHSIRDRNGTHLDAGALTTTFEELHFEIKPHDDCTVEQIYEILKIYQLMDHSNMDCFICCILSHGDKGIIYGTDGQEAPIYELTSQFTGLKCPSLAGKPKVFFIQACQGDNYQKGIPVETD
T4 sequence (Q14790 385-479 limits assumed): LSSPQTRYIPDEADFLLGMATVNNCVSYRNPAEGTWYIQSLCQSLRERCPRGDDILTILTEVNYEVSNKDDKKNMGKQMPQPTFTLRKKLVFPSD
Experimental: as §1, §2, §3, §4

Caspases 1 through 10 = assay: Caspase-1 to Caspase-10 inhibitor screening, profile across the panel
Experimental: as §1, §2, §3, §4

SMILES | inhibition at 10 µM (Caspase-2) [%] | inhibition at 100 µM (Caspase-2) [%] | IC50 (Caspase-2) [µM] | inhibition at 10 µM (Caspase-1) [%] | inhibition at 100 µM (Caspase-1) [%] | IC50 (Caspase-1; read-out: IC50 Casp1) [µM] | IC50 (Caspase-1; read-out: potency (IC50) against caspase-1) [µM] | inhibition at 10 µM (Caspase-10) [%] | inhibition at 100 µM (Caspase-10) [%] | IC50 (Caspase-10) [µM] | inhibition at 10 µM (Caspase-8) [%] | inhibition at 100 µM (Caspase-8) [%] | IC50 (Caspase-8) [µM] | inhibition profile across caspases, in words (Caspases 1 through 10)
CC(C)(C)[C@H](NC(=O)c1ccc2ccccc2n1)C(=O)N1CCC[C@@H]1C(=O)N[C@H](/C=C/S(C)(=O)=O)CC(=O)O [Compound 6, 2-Quinoline carbonyl-t-Leu-pro-Asp methyl vinyl sulfone] | 2 | 10 | > 100 | 98 | 100 | 0.04 | 0.042 | 3 | 74 | 56 | 0 | 22 | > 100 | inhibits selectively caspase-1; also recorded: very strong inhibitory activity towards pro-inflammatory Caspases
CCOC(=O)/C=C/[C@H](CC(=O)O)NC(=O)[C@H]1CCCN1C(=O)[C@@H](NC(=O)c1ccc(N)c(Cl)c1)C(C)(C)C [Compound 116, (4-amino-3-chlorobenzene carbonyl)-t-Leu-Pro-Asp Ethyl vinyl ester] |  |  | > 100 |  |  | 0.01 |  |  |  | 0.55 |  |  | 0.6 | stronger inhibitory activity towards pro-inflammatory caspases Caspase-1 and -5
CCOC(=O)/C=C/[C@H](CC(=O)O)NC(=O)[C@@H](NC(=O)[C@H](CCC(=O)O)NC(=O)[C@@H](NC(=O)OCc1ccccc1)C(C)C)C(C)CC (stereo partly drawn) [Compound 124, Z-Val-Glu-Ile-Asp-Ethyl Vinyl ester] |  |  | 10 |  |  | 0.78 |  |  |  | 0.03 |  |  | 0.19 | pan-caspase inhibitor
CC(C)[C@H](NC(=O)[C@H](Cc1cn(C)c2ccccc12)NC(=O)[C@H](CC(=O)O)NC(=O)OCc1ccccc1)C(=O)N[C@H](/C=C/S(C)(=O)=O)CC(=O)O [Compound 36, Z-Asp-Trp(N-Me)-Val-Asp-methyl vinyl sulfone] | 0 | 19 | > 100 | 75 | 94 | 3.8 |  | 31 | 98 | 18.6 | 0 | 33 | > 100 | 
CCOC(=O)/C=C/[C@H](CC(=O)O)NC(=O)[C@H]1CCCN1C(=O)[C@@H](NC(=O)c1ccc2ccccc2n1)C(C)(C)C [Compound 118, 2-Quinoline carbonyl-t-Leu-Pro-Asp Ethyl Vinyl Ester] | 4 | 10 | > 100 | 100 | 100 | 0.03 |  | 59 | 97 | 8.05 | 36 | 89 | 21.1 | very strong inhibitory activity towards pro-inflammatory Caspases
CCC(C)[C@H](NC(=O)[C@H](CCC(=O)O)NC(=O)[C@@H](NC(=O)OCc1ccccc1)C(C)C)C(=O)N[C@H](/C=C/S(C)(=O)=O)CC(=O)O (stereo partly drawn) [Compound 38, Z-Val-Glu-Ile-Asp-methyl vinyl sulfone] | 2 | 4 |  | 81 | 97 | 2.7 |  | 100 | 100 | 0.13 | 97 | 100 | 0.66 | 
CC(C)[C@H](NC(=O)[C@@H](N)Cc1ccc(O)cc1)C(=O)N[C@@H](C)C(=O)N[C@H](/C=C/S(C)(=O)=O)CC(=O)O [Compound 42, Tyr-Val-Ala-Asp methyl vinyl sulfone] | 0 | 0 | > 100 | 26 | 72 | 33.8 |  | 13 | 79 | 34 | 12 | 30 | > 100 | 
CS(=O)(=O)/C=C/[C@H](CC(=O)O)NC(=O)C1CCCN1C(=O)[C@@H](NC(=O)[C@H](CC(=O)O)NC(=O)OCc1ccccc1)C1CC1 (stereo in doubt) [Compound 28, Z-Asp-Cyclopropylglycine-Pro-Asp-methyl vinyl sulfone] | 22 | 79 | 30.4 | 49 | 90 | 10.6 |  | 82 | 99 | 2.45 | 20 | 80 | 27.6 | 
CC(C)(C)OC(=O)CC[C@H](NC(=O)OC(C)(C)C)C(=O)N[C@H](/C=C/S(C)(=O)=O)CC(=O)OC(C)(C)C [Compound 21, Boc-Glu(O—tBu)-Asp (O—tBu)-methyl vinyl sulfone] | 14 | 18 | > 100 | 2 | 2 | > 100 |  | 0 | 0 | > 100 | 3 | 4 | > 100 | 
CC(C)(C)[C@H](NC(=O)c1ccc2ncccc2n1)C(=O)N1CCCC1C(=O)N[C@H](/C=C/S(C)(=O)=O)CC(=O)O (stereo in doubt) [Compound 8, (1,5-Naphthyridine-2-carbonyl)-t-Leu-Pro-Asp methyl vinyl sulfone] | 3 | 5 | > 100 | 91 | 100 | 0.88 |  | 27 | 90 | 18 | 8 | 23 | > 100 | 
CS(=O)(=O)/C=C/[C@H](CC(=O)O)NC(=O)[C@H](CCC(=O)O)NC(=O)c1ccc2ccccc2n1 [Compound 18, 2-Quinoline carbonyl-Glu-Asp methyl vinyl sulfone] | 0 | 0 | > 100 | 1 | 1 | > 100 |  | 14 | 0 | > 100 | 0 | 0 | > 100 | 
CC(C)(C)[C@@H](NC(=O)[C@H](CC(=O)O)NC(=O)OCc1ccccc1)C(=O)N1CC[C@@H]1C(=O)N[C@H](/C=C/S(C)(=O)=O)CC(=O)O [Compound 32, Z-Asp-t-Leu-(Azetidine-2-carbonyl)-Asp-methyl vinyl sulfone] | 43 | 86 | 13.1 | 44 | 86 | 13.3 |  | 97 | 100 | 0.42 | 69 | 98 | 4.08 | 
